Source: ChEMBL document CHEMBL1201862, “PubChem BioAssay data set” (2004)
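Following 48 hours of exposure in 96-well plates, responses at five concentrations were used to interpolate endpoints linearly. The concentration for 50% growth inhibition is given as GI50.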 Activity calls are given as the source filed them. No stated cut-off is given here; in the data, active = GI50 up to about 1.1 µM and inactive = higher.

How the values were obtained:
Assay in all cases: NCI tumour cell line growth inhibition, 48 h
A549 = test system: A549
DMS-273 = test system: DMS-273
DU-145 = test system: DU-145
HCC 2998 = test system: HCC 2998
IGROV-1 = test system: IGROV-1
KM12 = test system: KM12
MCF7 = test system: MCF7
Malme-3M = test system: Malme-3M
NCI-H23 = test system: NCI-H23
NCI/ADR-RES = test system: NCI/ADR-RES
OVCAR-4 = test system: OVCAR-4
RPMI-8226 = test system: RPMI-8226
SF-295 = test system: SF-295
SF-539 = test system: SF-539
SK-MEL-28 = test system: SK-MEL-28
SK-MEL-2 = test system: SK-MEL-2
SK-OV-3 = test system: SK-OV-3
SNB-19 = test system: SNB-19
CAKI-1 = test system: CAKI-1

Row | Compound | GI50 (A549) | GI50 (DMS-273) | GI50 (DU-145) | GI50 (HCC 2998) | GI50 (IGROV-1) | GI50 (KM12) | GI50 (MCF7) | GI50 (Malme-3M) | GI50 (NCI-H23) | GI50 (NCI/ADR-RES) | GI50 (OVCAR-4) | GI50 (RPMI-8226) | GI50 (SF-295) | GI50 (SF-539) | GI50 (SK-MEL-28) | GI50 (SK-MEL-2) | GI50 (SK-OV-3) | GI50 (SNB-19) | GI50 (CAKI-1)
1 | O=c1cc(-c2ccccc2F)[nH]c2cc3c(cc12)OCO3 | 0.204 µM (active) | 0.189 µM (active) | 0.0399 µM (active) | 0.107 µM (active) | 0.118 µM (active) | 0.0344 µM (active) | 0.0953 µM (active) | 0.053 µM (active) | 0.35 µM (active) | 0.035 µM (active) | > 24.6 µM (inactive) | 0.0631 µM (active) | 0.0993 µM (active) | 0.0702 µM (active) | > 32.9 µM (inactive) | 0.1 µM (active) | 0.201 µM (active) | 0.202 µM (active) | –
2 | COc1ccc(Cc2c3cc(O)c([O-])cc3cc[n+]2C)cc1 | 30.8 µM (inactive) | 16.5 µM (inactive) | – | 42.6 µM (inactive) | 30.3 µM (inactive) | 40.2 µM (inactive) | – | 30.7 µM (inactive) | 29.8 µM (inactive) | – | 51.3 µM (inactive) | 28.4 µM (inactive) | 19.9 µM (inactive) | 19.1 µM (inactive) | 22.3 µM (inactive) | 65.9 µM (inactive) | 41.5 µM (inactive) | 35 µM (inactive) | 8.55 µM (inactive)
3 | N#CCN1C(=O)c2cc([N+](=O)[O-])cc3cc([N+](=O)[O-])cc(c23)C1=O | 18.6 µM (inactive) | 23.9 µM (inactive) | – | 15 µM (inactive) | 13.2 µM (inactive) | 11.2 µM (inactive) | – | 14.8 µM (inactive) | 15.9 µM (inactive) | – | 14.8 µM (inactive) | 5.51 µM (inactive) | 30.5 µM (inactive) | 14.6 µM (inactive) | 19 µM (inactive) | 3.94 µM (inactive) | 39.6 µM (inactive) | 24.2 µM (inactive) | 23.9 µM (inactive)
4 | O=C1c2c(c3c4ccccc4n(CC4CO4)c3c3[nH]c4ccccc4c23)C(=O)N1Cc1ccccc1 (configuration not stated) | > 100 µM (inactive) | > 100 µM (inactive) | – | > 100 µM (inactive) | 67 µM (inactive) | > 100 µM (inactive) | – | > 100 µM (inactive) | > 100 µM (inactive) | – | 33 µM (inactive) | > 100 µM (inactive) | > 100 µM (inactive) | 37.1 µM (inactive) | > 100 µM (inactive) | > 100 µM (inactive) | > 100 µM (inactive) | > 100 µM (inactive) | > 100 µM (inactive)
5 | Clc1ccccc1C1N2CCCCC2[C@@H]2c3[nH]c4ccccc4c3CCN12 (some centres not stated) | > 10 µM (inactive) | 27.4 µM (inactive) | – | 18.6 µM (inactive) | 35.1 µM (inactive) | – | – | 4.84 µM (inactive) | 23.6 µM (inactive) | – | 19.1 µM (inactive) | 23.8 µM (inactive) | 25.4 µM (inactive) | 15.2 µM (inactive) | 18.5 µM (inactive) | 16.7 µM (inactive) | 21.6 µM (inactive) | 23 µM (inactive) | > 10 µM (inactive)
6 | NS(=O)(=O)c1ccc(NC2=CC(=O)C(=O)c3ccccc32)cc1 | > 100 µM (inactive) | > 100 µM (inactive) | – | > 100 µM (inactive) | > 100 µM (inactive) | > 100 µM (inactive) | – | > 100 µM (inactive) | > 100 µM (inactive) | – | > 100 µM (inactive) | > 100 µM (inactive) | > 100 µM (inactive) | > 100 µM (inactive) | > 100 µM (inactive) | > 100 µM (inactive) | > 100 µM (inactive) | > 100 µM (inactive) | > 100 µM (inactive)
7 | CCOC(=O)/C(ON)=C(/CC/C(C(=O)OC)=C(\ON)C(=O)OCC)C(=O)OC | > 100 µM (inactive) | > 100 µM (inactive) | – | > 100 µM (inactive) | > 100 µM (inactive) | > 100 µM (inactive) | – | > 100 µM (inactive) | > 100 µM (inactive) | – | > 100 µM (inactive) | > 100 µM (inactive) | > 100 µM (inactive) | > 100 µM (inactive) | > 100 µM (inactive) | > 100 µM (inactive) | > 100 µM (inactive) | > 100 µM (inactive) | > 100 µM (inactive)
8 | COC(=O)N/N=C(/CCC(=O)Nc1ccc(C)c(C)c1)CC(=O)C(C)(C)C | > 100 µM (inactive) | > 100 µM (inactive) | – | > 100 µM (inactive) | > 100 µM (inactive) | > 100 µM (inactive) | – | > 100 µM (inactive) | > 100 µM (inactive) | – | > 100 µM (inactive) | > 100 µM (inactive) | > 100 µM (inactive) | > 100 µM (inactive) | > 100 µM (inactive) | > 100 µM (inactive) | > 100 µM (inactive) | > 100 µM (inactive) | > 100 µM (inactive)
9 | CC1=CC(=O)CC2(C)CC[C@@H]3C[C@]12OC3(C)C (some centres not stated) | > 100 µM (inactive) | > 100 µM (inactive) | – | > 100 µM (inactive) | > 100 µM (inactive) | > 100 µM (inactive) | – | > 100 µM (inactive) | > 100 µM (inactive) | – | > 100 µM (inactive) | > 100 µM (inactive) | > 100 µM (inactive) | > 100 µM (inactive) | > 100 µM (inactive) | > 100 µM (inactive) | > 100 µM (inactive) | > 100 µM (inactive) | > 100 µM (inactive)
10 | CCCOP(=S)(N1CC1)N1CC1 | > 100 µM (inactive) | > 100 µM (inactive) | – | > 100 µM (inactive) | > 100 µM (inactive) | > 100 µM (inactive) | – | > 100 µM (inactive) | > 100 µM (inactive) | – | > 100 µM (inactive) | > 100 µM (inactive) | > 100 µM (inactive) | > 100 µM (inactive) | > 100 µM (inactive) | > 100 µM (inactive) | > 100 µM (inactive) | > 100 µM (inactive) | > 100 µM (inactive)
11 | N=C1NC(=O)N2CC12 (configuration not stated) [IMEXON] | > 100 µM (inactive) | > 100 µM (inactive) | – | > 100 µM (inactive) | > 100 µM (inactive) | > 100 µM (inactive) | – | > 100 µM (inactive) | > 100 µM (inactive) | – | > 100 µM (inactive) | > 100 µM (inactive) | > 100 µM (inactive) | > 100 µM (inactive) | > 100 µM (inactive) | > 100 µM (inactive) | > 100 µM (inactive) | > 100 µM (inactive) | > 100 µM (inactive)
